Source: US20040092588A1, “Antiseptic for wounds and mucous membranes” (priority 2001, published 2004)

System: human amnion cells (FL cells)
Assay: neutral red uptake cytotoxicity test
Format: cell-based
Settings: 24 h at 37° C.
Experimental: In this test, adherent cultures of human amnion cells (FL cells) are incubated for 24 h at 37° C. with the desired concentration of the test substance in complete MEM culture medium with 5% FBS in a 5% CO2/air atmosphere. The culture medium and test substance are then removed, and new culture medium with neutral red is added. Since vital FL cells take up the dye neutral red in their lysosomes, the intensity of the eluted red coloration is correlated with the proportion of living cells. The intensity is automatically determined by the absorbance at a 540 nm test wavelength/655 nm reference wavelength. Information about the cytotoxic activity of the test substance can be obtained by comparison with a control group that was incubated with phosphate-buffered salt solution (PBS) instead of with the test substance. In addition, this model can be used to test and compare different formulations.
In the present test, different concentrations of octenidine dihydrochloride in PBS and Octenisept® (containing octenidine dihydrochloride and phenoxyethanol) were compared with each other and with PBS. The concentration values refer to the concentration of octenidine dihydrochloride.
The measured absorbances are plotted in FIGS. 1-2. Each measurement is based on 32 individual measurements. Inferential statistical analysis was performed by the U-test. […]

Structure (SMILES): CCCCCCCCN=c1ccn(CCCCCCCCCCn2ccc(=NCCCCCCCC)cc2)cc1.Cl.Cl [octenidine dihydrochloride]
- cytotoxic activity relative to comparable concentrations in Octenisept: significantly lower
- absorbance (neutral red, 540 nm/655 nm) relative to Octenisept (all tested concentrations, U-test): significantly elevated
